Assays:
Format in all cases: in vivo
[1] = test system: Setaria faberi (SETFA); assay: Pre-emergence herbicidal glasshouse test on Setaria faberi; details: pre-emergence; 1000 g/h; evaluated after 13 days
Method in brief: (§1)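 Scored on a five-point scale (1 = 0-19% to 5 = 80-100% damage) 13 days after treatment. Application rate 1000 g/h in acetone/water (50:50) containing 0.5% Tween 20, sprayed one day post-sowing for pre-emergence or eight days for post-emergence; glasshouse at 24/16° C, 14 h light, 65% humidity.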

[2] = test system: Solanum nigrum (SOLNI); assay: Post-emergence herbicidal glasshouse test on Solanum nigrum; details: post-emergence; 1000 g/h; evaluated after 13 days
Method in brief: as §1

[3] = test system: Echinochloa crus-galli (ECHCG); assay: Pre-emergence herbicidal glasshouse test on Echinochloa crus-galli; details: pre-emergence; 1000 g/h; evaluated after 13 days
Method in brief: as §1

[4] = test system: Ipomoea hederacea (IPOHE); assay: Pre-emergence herbicidal glasshouse test on Ipomoea hederacea; details: pre-emergence; 1000 g/h; evaluated after 13 days
Method in brief: as §1

[5] = test system: Amaranthus retoflexus (AMARE); assay: Post-emergence herbicidal glasshouse test on Amaranthus retoflexus; details: post-emergence; 1000 g/h; evaluated after 13 days
Method in brief: as §1

[6] = test system: Ipomoea hederacea (IPOHE); assay: Post-emergence herbicidal glasshouse test on Ipomoea hederacea; details: post-emergence; 1000 g/h; evaluated after 13 days
Method in brief: as §1

[7] = test system: Echinochloa crus-galli (ECHCG); assay: Post-emergence herbicidal glasshouse test on Echinochloa crus-galli; details: post-emergence; 1000 g/h; evaluated after 13 days
Method in brief: as §1

[8] = test system: Amaranthus retoflexus (AMARE); assay: Pre-emergence herbicidal glasshouse test on Amaranthus retoflexus; details: pre-emergence; 1000 g/h; evaluated after 13 days
Method in brief: as §1

[9] = test system: Setaria faberi (SETFA); assay: Post-emergence herbicidal glasshouse test on Setaria faberi; details: post-emergence; 1000 g/h; evaluated after 13 days
Method in brief: as §1

[10] = test system: Solanum nigrum (SOLNI); assay: Pre-emergence herbicidal glasshouse test on Solanum nigrum; details: pre-emergence; 1000 g/h; evaluated after 13 days
Method in brief: as §1

[11] = test system: Alopecurus myosuroides (ALOMY); assay: Post-emergence herbicidal glasshouse test on Alopecurus myosuroides; details: post-emergence; 1000 g/h; evaluated after 13 days
Method in brief: as §1

[12] = test system: Alopecurus myosuroides (ALOMY); assay: Pre-emergence herbicidal glasshouse test on Alopecurus myosuroides; details: pre-emergence; 1000 g/h; evaluated after 13 days
Method in brief: as §1

SMILES | PRE Application SETFA herbicidal damage (five point scale) [1] | POST Application SOLNI herbicidal damage (five point scale) [2] | PRE Application ECHCG herbicidal damage (five point scale) [3] | PRE Application IPOHE herbicidal damage (five point scale) [4] | POST Application AMARE herbicidal damage (five point scale) [5] | POST Application IPOHE herbicidal damage (five point scale) [6] | POST Application ECHCG herbicidal damage (five point scale) [7] | PRE Application AMARE herbicidal damage (five point scale) [8] | POST Application SETFA herbicidal damage (five point scale) [9] | PRE Application SOLNI herbicidal damage (five point scale) [10] | POST Application ALOMY herbicidal damage (five point scale) [11] | PRE Application ALOMY herbicidal damage (five point scale) [12]
Cc1ccc(-c2c(C(F)(F)F)ccn(-c3cnn(C)c(=O)c3O)c2=O)cc1[N+](=O)[O-] [Compound 7.027] | 3 (3=40-59% damage) | 5 (5=80-100% damage) | 5 (5=80-100% damage) | 1 (1=0-19% damage) | 5 (5=80-100% damage) | 2 (2=20-39% damage) | 5 (5=80-100% damage) | 5 (5=80-100% damage) | 5 (5=80-100% damage) | 5 (5=80-100% damage) | 3 (3=40-59% damage) | 3 (3=40-59% damage)
Cn1ncc(-n2ccc(C(F)(F)F)c(-c3cccc(Cl)c3Cl)c2=O)c(O)c1=O [Compound 7.029] | 1 (1=0-19% damage) | 5 (5=80-100% damage) | 2 (2=20-39% damage) | 1 (1=0-19% damage) | 5 (5=80-100% damage) | 4 (4=60-79% damage) | 5 (5=80-100% damage) | 5 (5=80-100% damage) | 2 (2=20-39% damage) | 5 (5=80-100% damage) | 3 (3=40-59% damage) | 2 (2=20-39% damage)
Cc1c(Cl)cccc1-c1c(C(F)(F)F)ccn(-c2cnn(C)c(=O)c2O)c1=O [Compound 7.030] | 4 (4=60-79% damage) | 5 (5=80-100% damage) | 5 (5=80-100% damage) | 4 (4=60-79% damage) | 5 (5=80-100% damage) | 5 (5=80-100% damage) | 5 (5=80-100% damage) | 5 (5=80-100% damage) | 5 (5=80-100% damage) | 5 (5=80-100% damage) | 5 (5=80-100% damage) | 5 (5=80-100% damage)
Cn1ncc(-n2ccc(C(F)(F)F)c(-c3ccc(C#N)cc3)c2=O)c(O)c1=O [Compound 7.031] | 5 (5=80-100% damage) | 5 (5=80-100% damage) | 5 (5=80-100% damage) | 5 (5=80-100% damage) | 5 (5=80-100% damage) | 5 (5=80-100% damage) | 5 (5=80-100% damage) | 5 (5=80-100% damage) | 5 (5=80-100% damage) | 5 (5=80-100% damage) | 5 (5=80-100% damage) | 5 (5=80-100% damage)
Cc1ccc(Cl)c(-c2c(C(F)(F)F)ccn(-c3cnn(C)c(=O)c3O)c2=O)c1 [Compound 7.032] | 5 (5=80-100% damage) | 5 (5=80-100% damage) | 5 (5=80-100% damage) | 5 (5=80-100% damage) | 5 (5=80-100% damage) | 5 (5=80-100% damage) | 5 (5=80-100% damage) | 5 (5=80-100% damage) | 5 (5=80-100% damage) | 5 (5=80-100% damage) | 3 (3=40-59% damage) | 4 (4=60-79% damage)

From patent publication US9693556B2, “Herbicidal pyridazinone derivatives” (SYNGENTA LIMITED, priority 2011, dated 2017)
